Reference: US20040229268A1, “Method and kit for identifying antibiotic-resistant microorganisms” (priority 2003, published 2004)

Legend:
[1] = system: mecA gene; ribosomal nucleic acids; assay: HPA, base treatment with and without thermal lysis (Example 4); assay type: binding, S. aureus
Method: The effect of base treatment with and without the heat treatment in lysis buffer was evaluated using a S. aureus specimen (GP1217, ATCC #33591). In this procedure the sample was treated with 0.8 N LiOH and thermal lysis was conducted by heat treatment for 15 minutes. Other conditions were as described above. Probe 1 labeled with acridinium ester was used in this procedure.

[2] = system: mecA gene; rRNA (pan-bacterial probe); assay: Hybridization Protection Assay (HPA), AE-labeled probes, thermally lysed specimens (Examples 1-2); assay type: binding, S. aureus
Method: The specimens were lysed by suspending approximately 5×10^8 cells in a lysis buffer (0.1% lithium lauryl sulfate, 1 mM EDTA, 20 mM lithium succinate, pH 5.5) and then incubating in a heat block set at 110° C. for 20 minutes. Thermal lysis of a variety of other specimens was effected under a range of temperature (heat block set at about 95° C. to 110° C.) and time (about 10 to 25 minutes) conditions. The lysed samples were tested for the presence of target sequences complementary to the probes using a Hybridization Protection Assay (HPA) as described by Arnold et al., in Clin. Chem. 35:1588(1989) and U.S. Pat. No. 6,004,745. 50 μl of the heat-treated suspension was incubated with an equal volume of AE-labeled probe in 2× hybridization buffer (1.2 M LiCl, 2% lithium lauryl sulfate, 20 mM EDTA, 20 mM EGTA, 100 mM lithium succinate, pH 5.5) at 60° C. for 30 minutes. The pH of succinate solutions may range from about 4.5 to about 5.5, although it is desirable to use a pH of 4.8 for succinate buffering. 300 μl of a selection reagent (0.6 M borate buffered solution, pH 8.5; note, pH may vary from 8.0 to 9.0) was added, the mixture was heated at 60° C. for 10 minutes to effect differential hydrolysis, and the samples were read in a GEN-PROBE® LEADER® luminometer using sequential 300 μl injections of 0.1% H2O2 and 1 N NaOH solutions (see Arnold et al, supra; GEN-PROBE® Detection Reagent Kit, Cat. No. 1791 may be used).
Procedures similar to those described in Example 1 were conducted using a large number of bacterial samples, except that parallel hybridization reactions employed a pan-bacterial probe which targeted rRNA (Probe Reagent 1, GEN-PROBE® MTC-NI Kit, catalog no. 4573). […] The pan-bacterial probe reagent served as a positive control for lysis of all of the specimens. In this procedure each sample was tested against a panel of the three probes contained in separate hybridization reactions. Aliquots of the samples tested using the pan-bacterial probe reagent were diluted 1:3000 prior to performing luminometry so that results fell within the linear range of the detector. The signals indicated lysis and detection of ribosomal nucleic acids in each of the samples. These values depended on the number of bacterial cells in the specimen, as well as on the extent of cell lysis and the release or accessibility of ribosomal nucleic acids from the cells to be detected by the pan-bacterial probe.

**Q.** Which results are given for “GGTATGTGGAAGTTAGATTGGGATCATAGCG (AE label, linker between 13 and 14, chemistry not fully specified; listed as Staphylococcus aureus) [Probe 1]”?
**A.** RLU ([1]; GP1217, Base treatment 30 minutes at 60° C.): 16016 RLU; RLU ([1]; GP1217, Thermal lysis 15 minutes at 100° C. + Base treatment 15 minutes at 60° C.): 38017 RLU; RLU ([1]; Table 5, Negative Control): 592 RLU; AE-probe Average RLU ([2]; No Specimen): 431 RLU; AE-probe Average RLU ([2]; S. aureus specimen #99, mecA PCR Pos): 2664 RLU; AE-probe Average RLU ([2]; S. aureus specimen #100, mecA PCR Neg): 590 RLU; AE-Probe Signal (RLU) ([2]; Table 2, Negative Control): 1817 RLU; AE-Probe Signal (RLU) ([2]; Table 2, specimen 10, mecA PCR Neg, pan-bacterial diluted 1:3000 prior to luminometry): 2918 RLU; AE-Probe Signal (RLU) ([2]; Table 2, specimen 99, mecA PCR Pos, pan-bacterial diluted 1:3000 prior to luminometry): 5822 RLU; AE-Probe Signal (RLU) ([2]; Table 2, specimen 100, mecA PCR Neg, pan-bacterial diluted 1:3000 prior to luminometry): 815 RLU; AE-Probe Signal (RLU) ([2]; Table 2, specimen 101, mecA PCR Neg, pan-bacterial diluted 1:3000 prior to luminometry): 2768 RLU; AE-Probe Signal (RLU) ([2]; Table 2, specimen 102, mecA PCR Pos, pan-bacterial diluted 1:3000 prior to luminometry): 5623 RLU; AE-Probe Signal (RLU) ([2]; Table 2, specimen 103, mecA PCR Neg, pan-bacterial diluted 1:3000 prior to luminometry): 1097 RLU; AE-Probe Signal (RLU) ([2]; Table 2, specimen 104, mecA PCR Neg, pan-bacterial diluted 1:3000 prior to luminometry): 959 RLU; AE-Probe Signal (RLU) ([2]; Table 2, specimen 105, mecA PCR Neg, pan-bacterial diluted 1:3000 prior to luminometry): 1086 RLU; AE-Probe Signal (RLU) ([2]; Table 2, specimen 106, mecA PCR Neg, pan-bacterial diluted 1:3000 prior to luminometry): 1327 RLU; AE-Probe Signal (RLU) ([2]; Table 2, specimen 139, mecA PCR Pos, pan-bacterial diluted 1:3000 prior to luminometry): 5755 RLU; AE-Probe Signal (RLU) ([2]; Table 2, specimen 140, mecA PCR Pos, pan-bacterial diluted 1:3000 prior to luminometry): 3143 RLU; AE-Probe Signal (RLU) ([2]; Table 2, specimen 142, mecA PCR Pos, pan-bacterial diluted 1:3000 prior to luminometry): 6845 RLU; AE-Probe Signal (RLU) ([2]; Table 2, specimen 145, mecA PCR Neg, pan-bacterial diluted 1:3000 prior to luminometry): 997 RLU; AE-Probe Signal (RLU) ([2]; Table 2, specimen 148, mecA PCR Pos, pan-bacterial diluted 1:3000 prior to luminometry): 10483 RLU; AE-Probe Signal (RLU) ([2]; Table 2, specimen 155, mecA PCR Neg, pan-bacterial diluted 1:3000 prior to luminometry): 730 RLU; AE-Probe Signal (RLU) ([2]; Table 2, specimen 164, mecA PCR Neg, pan-bacterial diluted 1:3000 prior to luminometry): 1546 RLU; AE-Probe Signal (RLU) ([2]; Table 2, specimen 178, mecA PCR Pos, pan-bacterial diluted 1:3000 prior to luminometry): 7772 RLU; AE-Probe Signal (RLU) ([2]; Table 2, specimen 188, mecA PCR Pos, pan-bacterial diluted 1:3000 prior to luminometry): 11856 RLU; AE-Probe Signal (RLU) ([2]; Table 2, specimen 270, mecA PCR Pos, pan-bacterial diluted 1:3000 prior to luminometry): 9256 RLU; AE-Probe Signal (RLU) ([2]; Table 2, specimen 296, mecA PCR Pos, Lab Pos control, pan-bacterial diluted 1:3000 prior to luminometry): 5567 RLU
